From patent US10159651B2, “Two-stage microparticle-based therapeutic delivery system and method” (Privo Technologies, Inc., priority 2016, dated 2018) come the findings set out here.

Structures are written as SMILES.

Data set [1] can be described thus: permeation of fluorescent dyes from multi-layered device into buccal tissue. Format: in vitro ADME, lamb. The text has this:
FIGS. 5A-5C show three images taken from lamb buccal tissue at different time points.
In another representative embodiment, a multi-layered device may be used for the delivery of multiple agents over a prolonged period of time (FIG. 4, FIG. 5). If the example of mucositis is again used, multiple layers may include a pain mitigator in free form, a pain mitigator encapsulated within microparticles and an agent for the treatment of mucositis encapsulated within microparticles. The initial freeform layer is able to provide immediate pain relief, and the subsequent particle-encapsulated layers are capable of delivering microparticles beneath the tissue, where they further release their agents over a period of days, providing longer-term pain relief and treatment. FIG. 4 and FIG. 5 illustrate this effect. Fluorescence was used in order to provide detection. As shown, the multiple fluorescent layers released over time and permeated the tissue at different rates, providing a customized treatment.

Data set [2] is described as follows: release profile of cisplatin from particles, detected by atomic absorption spectrometry. Particulars: over 60 hours; particles of average diameter 500 to 2000 nm. The format is physicochemical. The text has this: FIG. 1 is a graph showing the release profile of example particles having an average diameter in the range of 500 to 2000 nm. […] Cisplatin was used for this experiment due to its use in the treatment of oral cancer and its ease of detection via atomic absorption spectrometry (AAS).

Take `O=C1OC2(c3ccc(O)cc3Oc3cc(O)ccc32)c2ccc(N=C=S)cc21` [FITC]: the permeation into tissue result is “beginning to permeate the tissue” in data set [1] (after 30 minutes) and “permeating deeper into the tissue” in data set [1] (after 1 hour).
For the compound `N.N.[Cl][Pt][Cl]` [cisplatin, Cisplatin], in data set [2], the “cisplatin released from NPs” value was 45%.
